Assay results from patent US10752900B2, “Oligonucleotides for modulating gene expression and uses thereof” (BIOGENERA S.P.A., priority 2012, dated 2020).

How the values were obtained:
[1] = test system: MYCN gene; assay: QT-PCR, MYCN mRNA in RH30 cells; assay type: cell-based, human; details: Table 6, PNA
Method: For the purpose of assessing the ability of the oligonucleotides of the present invention to modulate the expression of the target genes, their ability to reduce the quantity of messenger RNA was analyzed using the Real-Time PCR technique. For this purpose, use was made of 24-well plates, which were seeded with 5.0×10^4 cells with 0.3 ml of OPTI-MEM (GIBCO BRL) medium, 4% FBS and 2 mM L-glutammine (experiments in triplicate) per well. The cells were incubated for 24 hours at 37° C., in an atmosphere containing 5% CO2 to permit adherence to the base of the wells. Each oligonucleotide analyzed, except for the PNA oligonucleotides, was incubated beforehand with 2 μl of Lipofectamine 2000 (Invitrogen), with 0.3 mL of serum-free OPTI-MEM (GIBCO BRL) medium. For each well, the oligonucleotides were analyzed at the following final concentrations: • the antisense oligonucleotides siRNA and siRNA gapmer (i.e. the oligonucleotides containing one or more monomers of chemically modified nucleic acids at the 3' or 5' end, while in the central portion they have monomers of nucleic acids that have not been modified or have been modified at the level of the phosphodiester bond as a phosphorothioate bond) were used at 200 nM; • the antisense oligonucleotides containing phosphorothioate DNA monomers, the RNA antigene oligonucleotides (agRNA) and the oligonucleotides containing DNA monomers and LNA monomers were used at 10 μM; • the morpholino oligonucleotides were used at a concentration of 1 μM, and • the PNA oligonucleotides were administered at a concentration of 1 μM. The cells were treated with the oligonucleotides, adding FBS up to 4% 6 hours after administration of the same. After 24 hours the total RNA was extracted from each well and purified using the RNeasy Mini Kit (QIAGEN). Assays were performed on 8 cell lines obtained from 5 different human tumours which are correlated with MYCN expression, i.e.: • as a neuroblastoma model use was made of the cell lines Kelly, IMR-32 (where the MYCN gene is amplified and superexpressed) and SKNBE2c and LAN1 (where the MYCN gene is amplified and superexpressed and the p53 gene is mutated); • as a rabdomiosarcoma model use was made of the cell line RH30, where the MYCN gene is amplified and superexpressed; • as a Wilms' tumour model use was made of the cell line WiT49, where the MYCN gene is amplified and superexpressed; • as a retinoblastoma model use was made of the cell line Y79, where the MYCN gene is amplified and superexpressed; and • as a model of small cell lung cancer use was made of the cell line H69 where the MYCN gene is amplified and superexpressed. As a control, use was made of the same cell lines as listed above treated with sterile water instead of oligonucleotides. Each RNA sample was quantified (in duplicate) using a NanoDrop ND-1000 spectrophotometer (NanoDrop Technologies). The first strand of cDNA was produced using the cDNA Synthesis Kit for RT-PCR (Roche). For the cDNA synthesis reaction a total of 1 μg of RNA was used. For the real-time PCR, 10 ng of cDNA in a final volume of 20 μl was used with SYBR Green Master Mix 2× (Applied Biosystems) (3 identical experiments were conducted in triplicate). Two housekeeping genes were used as positive controls: GAPDH and beta-actin (ACTB). The conditions of the QT-PCR reaction were: 10 min at 95° C., 20 sec at 95° C., and 30 sec at 60° C., for 50 cycles. The PNAs having SEQ ID NO: 1-12 were also tested on different cell lines which overexpress MYCN (Kelly, SKNBE2c, RH30, […] 1 and H69). The results are shown in Table 6 and confirm the selectivity and specificity of the inhibition effect of the PNAs on the product of protein translation of the MYCN gene. Chimeric oligonucleotides comprising DNA monomers and LNA monomers and having the MYCN gene as their target were tested in vitro on alveolar rabdomyosarcoma cells (RH30). […]

[2] = test system: human and mouse neuroblastoma tumour cell lines (SMS-KAN, LAN 1, IMR-32, SMS-KCN, Kelly, NHO2A, SKNBE2c); assay type: cell-based
[3] = test system: MYCN gene; assay: QT-PCR, MYCN mRNA in WERI-Rb1 cells; assay type: cell-based; details: Table 6
Method: For the purpose of assessing the ability of the oligonucleotides of the present invention to modulate the expression of the target genes, their ability to reduce the quantity of messenger RNA was analyzed using the Real-Time PCR technique. For this purpose, use was made of 24-well plates, which were seeded with 5.0×10^4 cells with 0.3 ml of OPTI-MEM (GIBCO BRL) medium, 4% FBS and 2 mM L-glutammine (experiments in triplicate) per well. The cells were incubated for 24 hours at 37° C., in an atmosphere containing 5% CO2 to permit adherence to the base of the wells. For each well, the oligonucleotides were analyzed at the following final concentrations: • the antisense oligonucleotides siRNA and siRNA gapmer (i.e. the oligonucleotides containing one or more monomers of chemically modified nucleic acids at the 3' or 5' end, while in the central portion they have monomers of nucleic acids that have not been modified or have been modified at the level of the phosphodiester bond as a phosphorothioate bond) were used at 200 nM; • the antisense oligonucleotides containing phosphorothioate DNA monomers, the RNA antigene oligonucleotides (agRNA) and the oligonucleotides containing DNA monomers and LNA monomers were used at 10 μM; • the morpholino oligonucleotides were used at a concentration of 1 μM, and • the PNA oligonucleotides were administered at a concentration of 1 μM. The cells were treated with the oligonucleotides, adding FBS up to 4% 6 hours after administration of the same. After 24 hours the total RNA was extracted from each well and purified using the RNeasy Mini Kit (QIAGEN). As a control, use was made of the same cell lines as listed above treated with sterile water instead of oligonucleotides. Each RNA sample was quantified (in duplicate) using a NanoDrop ND-1000 spectrophotometer (NanoDrop Technologies). The first strand of cDNA was produced using the cDNA Synthesis Kit for RT-PCR (Roche). For the cDNA synthesis reaction a total of 1 μg of RNA was used. For the real-time PCR, 10 ng of cDNA in a final volume of 20 μl was used with SYBR Green Master Mix 2× (Applied Biosystems) (3 identical experiments were conducted in triplicate). Two housekeeping genes were used as positive controls: GAPDH and beta-actin (ACTB). The conditions of the QT-PCR reaction were: 10 min at 95° C., 20 sec at 95° C., and 30 sec at 60° C., for 50 cycles. The PNAs having SEQ ID NO: 1-12 were also tested on different cell lines which overexpress MYCN (Kelly, SKNBE2c, RH30, […] 1 and H69). The results are shown in Table 6 and confirm the selectivity and specificity of the inhibition effect of the PNAs on the product of protein translation of the MYCN gene.

| Substance | RH30 % mRNA [1] | effect in terms of inhibiting cell proliferation in combination with chemotherapeutic agents [2] | WERI-Rb1 % mRNA [3] |
| --- | --- | --- | --- |
| SEQ ID NO: 1: PNA ATGCCGGGCATGATCT against MYCN; subject of patent EP 1618195, control sequence used for comparison (all peptide nucleic acid (PNA)) [reference compound] | 39% | synergic effect | 31% |
| SEQ ID NO: 2: PNA antigene oligonucleotide GGGTGGATGCGGGGGG directed against MYCN (PNA backbone, chemistry not fully specified) | 74% | – | 46% |
| SEQ ID NO: 3: PNA antigene oligonucleotide GATGCGGGGGGCTCCT directed against MYCN (PNA backbone, chemistry not fully specified) | 65% | – | 43% |
| SEQ ID NO: 4: PNA antigene oligonucleotide GTCGGCGGGAGGTAAG directed against MYCN (PNA backbone, chemistry not fully specified) | 57% | – | 41% |
| SEQ ID NO: 5: PNA antigene oligonucleotide GCTGGGTGGATGCGGG directed against MYCN (PNA backbone, chemistry not fully specified) | 56% | – | 38% |
| SEQ ID NO: 6: PNA antigene oligonucleotide TGGACGCGCTGGGTGG directed against MYCN (PNA backbone, chemistry not fully specified) | 56% | – | 37% |
| SEQ ID NO: 7: PNA antigene oligonucleotide CGCGCTGGGTGGATGC directed against MYCN (all peptide nucleic acid (PNA)) | 55% | – | 38% |
| SEQ ID NO: 8: PNA antigene oligonucleotide GTCTGGACGCGCTGGG directed against MYCN (all peptide nucleic acid (PNA)) | 58% | – | 40% |
| SEQ ID NO: 9: PNA antigene oligonucleotide CCCTGCAGTCGGCGGG directed against MYCN (all peptide nucleic acid (PNA)) | 50% | – | 36% |
| SEQ ID NO: 10: PNA antigene oligonucleotide CGGCCGCGGGCCGCCA directed against MYCN (PNA backbone, chemistry not fully specified) | 29% | – | 30% |
| SEQ ID NO: 11: PNA antigene oligonucleotide GGGAACTGTGTTGGAG directed against MYCN (PNA backbone, chemistry not fully specified) | 31% | – | 30% |
| SEQ ID NO: 12: PNA antigene oligonucleotide TGTCTGGACGCGCTGG directed against MYCN (all peptide nucleic acid (PNA)) | 32% | – | 30% |
